Assay results as given in ChEMBL document CHEMBL1201862, “PubChem BioAssay data set” (2004).
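A five-concentration, 48-hour dose response in 96-well plates underlies each endpoint, interpolated linearly between surrounding concentrations. At the GI50, growth is halved.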 Active and inactive are the calls of the source. Cut-off read from the data, not from the text of the source: active = GI50 up to about 1.1 µM and inactive = higher.

Experiments:
Assay in all cases: NCI-60 cell line screen, 48 h
[1] = tested on: 786-0
[2] = tested on: A498
[3] = tested on: A549
[4] = tested on: ACHN
[5] = tested on: BT-549
[6] = tested on: CAKI-1
[7] = tested on: COLO 205
[8] = tested on: DU-145
[9] = tested on: EKVX
[10] = tested on: HCC 2998
[11] = tested on: HCT-116
[12] = tested on: HCT-15
[13] = tested on: HL-60
[14] = tested on: HOP-62
[15] = tested on: HOP-92
[16] = tested on: HT-29
[17] = tested on: Hs-578T
[18] = tested on: IGROV-1
[19] = tested on: KM12
[20] = tested on: LOX IMVI
[21] = tested on: M14
[22] = tested on: MCF7
[23] = tested on: MDA-MB-231
[24] = tested on: MDA-MB-435
[25] = tested on: MDA-N
[26] = tested on: MOLT-4
[27] = tested on: NCI-H226
[28] = tested on: NCI-H23
[29] = tested on: NCI-H522
[30] = tested on: NCI/ADR-RES
[31] = tested on: OVCAR-3
[32] = tested on: OVCAR-5
[33] = tested on: OVCAR-8
[34] = tested on: PC-3
[35] = tested on: RPMI-8226
[36] = tested on: RXF 393
[37] = tested on: SF-268
[38] = tested on: SF-295
[39] = tested on: SF-539
[40] = tested on: SK-MEL-28
[41] = tested on: SK-MEL-2
[42] = tested on: SK-MEL-5
[43] = tested on: SN12C
[44] = tested on: SNB-19
[45] = tested on: SNB-75
[46] = tested on: SR
[47] = tested on: SW-620
[48] = tested on: T47D
[49] = tested on: TK-10
[50] = tested on: UACC-257
[51] = tested on: UACC-62
[52] = tested on: UO-31
[53] = tested on: CCRF-CEM
[54] = tested on: K562
[55] = tested on: Malme-3M
[56] = tested on: NCI-H460
[57] = tested on: OVCAR-4
[58] = tested on: SK-OV-3
[59] = tested on: U-251

## CCOC(=O)c1nc2cc(C(F)(F)F)ccc2nc1Nc1ccc(OC)cc1
[1]
  GI50: 47.4 µM (inactive)
[2]
  GI50: > 100 µM (inactive)
[3]
  GI50: > 100 µM (inactive)
[4]
  GI50: 86.9 µM (inactive)
[5]
  GI50: > 100 µM (inactive)
[6]
  GI50: > 100 µM (inactive)
[7]
  GI50: 47.4 µM (inactive)
[8]
  GI50: > 100 µM (inactive)
[9]
  GI50: > 100 µM (inactive)
[10]
  GI50: > 100 µM (inactive)
[11]
  GI50: 46.1 µM (inactive)
[12]
  GI50: > 100 µM
[13]
  GI50: > 100 µM (inactive)
[14]
  GI50: 42.5 µM (inactive)
[15]
  GI50: 36.6 µM (inactive)
[16]
  GI50: > 100 µM (inactive)
[17]
  GI50: 54.1 µM (inactive)
[18]
  GI50: > 100 µM (inactive)
[19]
  GI50: > 100 µM (inactive)
[20]
  GI50: 41.5 µM (inactive)
[21]
  GI50: > 100 µM (inactive)
[22]
  GI50: > 100 µM (inactive)
[23]
  GI50: 61.7 µM (inactive)
[24]
  GI50: > 100 µM (inactive)
[25]
  GI50: > 100 µM (inactive)
[26]
  GI50: > 100 µM (inactive)
[27]
  GI50: > 100 µM (inactive)
[28]
  GI50: > 100 µM (inactive)
[29]
  GI50: > 100 µM (inactive)
[30]
  GI50: > 100 µM (inactive)
[31]
  GI50: > 100 µM (inactive)
[32]
  GI50: > 100 µM (inactive)
[33]
  GI50: > 100 µM (inactive)
[34]
  GI50: > 100 µM (inactive)
[35]
  GI50: > 100 µM (inactive)
[36]
  GI50: 56.1 µM (inactive)
[37]
  GI50: > 100 µM (inactive)
[38]
  GI50: 81.3 µM (inactive)
[39]
  GI50: > 100 µM (inactive)
[40]
  GI50: > 100 µM (inactive)
[41]
  GI50: > 100 µM (inactive)
[42]
  GI50: > 100 µM (inactive)
[43]
  GI50: > 100 µM (inactive)
[44]
  GI50: 54.3 µM (inactive)
[45]
  GI50: 55.6 µM (inactive)
[46]
  GI50: > 100 µM (inactive)
[47]
  GI50: > 100 µM (inactive)
[48]
  GI50: 95.1 µM (inactive)
[49]
  GI50: > 100 µM (inactive)
[50]
  GI50: > 100 µM (inactive)
[51]
  GI50: > 100 µM (inactive)
[52]
  GI50: > 100 µM (inactive)

## CN(C)CCCNc1c(C#N)[n+]([O-])c2cc(Cl)ccc2[n+]1[O-]
[1]
  GI50: 9.95 µM (inactive)
[2]
  GI50: 22.1 µM (inactive)
[3]
  GI50: 7.67 µM (inactive)
[4]
  GI50: 5.5 µM (inactive)
[5]
  GI50: 6.79 µM (inactive)
[6]
  GI50: 7.91 µM (inactive)
[53]
  GI50: 3.21 µM (inactive)
[7]
  GI50: 4.84 µM (inactive)
[8]
  GI50: 21.2 µM (inactive)
[9]
  GI50: 5.78 µM (inactive)
[10]
  GI50: 5.53 µM (inactive)
[11]
  GI50: 7.18 µM (inactive)
[12]
  GI50: 3.75 µM
[14]
  GI50: 11.4 µM (inactive)
[15]
  GI50: 2.69 µM (inactive)
[16]
  GI50: 5.58 µM (inactive)
[17]
  GI50: 31.6 µM (inactive)
[18]
  GI50: 1.71 µM (inactive)
[54]
  GI50: 3.92 µM (inactive)
[19]
  GI50: 7.73 µM (inactive)
[20]
  GI50: 10.2 µM (inactive)
[21]
  GI50: 8.13 µM (inactive)
[22]
  GI50: 9.38 µM (inactive)
[23]
  GI50: 10.4 µM (inactive)
[24]
  GI50: 17.3 µM (inactive)
[25]
  GI50: 17.7 µM (inactive)
[26]
  GI50: 1.18 µM (inactive)
[55]
  GI50: 3.85 µM (inactive)
[27]
  GI50: 12.4 µM (inactive)
[28]
  GI50: 7.74 µM (inactive)
[56]
  GI50: 2.62 µM (inactive)
[29]
  GI50: 3.1 µM (inactive)
[30]
  GI50: 13.2 µM (inactive)
[31]
  GI50: 5.68 µM (inactive)
[57]
  GI50: 4.75 µM (inactive)
[32]
  GI50: > 61.7 µM (inactive)
[33]
  GI50: 11.7 µM (inactive)
[34]
  GI50: 4.91 µM (inactive)
[35]
  GI50: 3.27 µM (inactive)
[36]
  GI50: 21.2 µM (inactive)
[37]
  GI50: 8.89 µM (inactive)
[38]
  GI50: 10.6 µM (inactive)
[39]
  GI50: 14.1 µM (inactive)
[40]
  GI50: 65.5 µM (inactive)
[41]
  GI50: 9.62 µM (inactive)
[42]
  GI50: 5.02 µM (inactive)
[58]
  GI50: 18.3 µM (inactive)
[43]
  GI50: 17.9 µM (inactive)
[44]
  GI50: 26.2 µM (inactive)
[45]
  GI50: 31.9 µM (inactive)
[46]
  GI50: 0.867 µM (active)
[47]
  GI50: 9.14 µM (inactive)
[48]
  GI50: 11.4 µM (inactive)
[49]
  GI50: 6.4 µM (inactive)
[59]
  GI50: 15.2 µM (inactive)
[50]
  GI50: 17.7 µM (inactive)
[51]
  GI50: 5.48 µM (inactive)
[52]
  GI50: 13.4 µM (inactive)
